The values below come from ChEMBL document CHEMBL1146164, “Synthesis and evaluation of aminomethyl dihydrocinnamates as a new class of PPAR ligands” (Bioorg Med Chem Lett, 2006).

One may read the IC50 as the concentration that inhibits the measured activity by half. As usually defined, the ED50 is the midpoint of the dose-response relation. The EC50 is the midpoint of the concentration-response curve.

Assay [1] deals with T1, Peroxisome proliferator-activated receptor alpha (Homo sapiens, UniProt Q07869).
T1 sequence (Q07869 whole entry): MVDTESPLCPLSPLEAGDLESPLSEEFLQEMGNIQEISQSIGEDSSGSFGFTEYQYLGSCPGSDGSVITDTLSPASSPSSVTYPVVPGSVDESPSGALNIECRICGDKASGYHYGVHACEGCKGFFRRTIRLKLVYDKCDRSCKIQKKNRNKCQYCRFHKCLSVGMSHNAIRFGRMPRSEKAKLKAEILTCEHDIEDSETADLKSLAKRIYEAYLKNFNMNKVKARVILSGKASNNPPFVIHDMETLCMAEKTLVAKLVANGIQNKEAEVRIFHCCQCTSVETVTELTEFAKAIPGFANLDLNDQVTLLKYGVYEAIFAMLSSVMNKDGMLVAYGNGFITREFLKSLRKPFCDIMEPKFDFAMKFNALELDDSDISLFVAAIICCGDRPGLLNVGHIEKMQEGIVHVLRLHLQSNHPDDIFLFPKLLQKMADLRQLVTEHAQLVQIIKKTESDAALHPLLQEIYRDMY
Put plainly: Displacement of [3H]2-(4-{2-[3-(2,4-difluoro-phenyl)-1-heptyl-ureido]-ethyl}-phenoxy)-2-methyl-butyric acid from hPPARalpha. On the technique in general: In a radioligand displacement assay an active substance lowers the binding of a labelled ligand.

In assay [2] the target is T2, Peroxisome proliferator-activated receptor alpha (Homo sapiens) (UniProt Q07869).
T2 sequence (whole entry): T1 sequence (Q07869 whole entry)
The assay can be described thus: Activity at human PPARalpha in CV1 cells by CTF assay relative to 2-(4-{2-[3-(2,4-difluoro-phenyl)-1-heptyl-ureido]-ethyl}-phenoxy)-2-methyl-butyric acid. Conditions: CV-1. In kind it is cell-based.

A further assay concerns Rattus norvegicus. The assay can be described thus: Reduction of plasma glucose level in orally dosed Zucker diabetic fatty rat. In kind it is functional. The settings on record: ZDF, po.
The target in assay [3] is T3, Peroxisome proliferator-activated receptor gamma (Homo sapiens, UniProt P37231).
T3 sequence (P37231 whole entry): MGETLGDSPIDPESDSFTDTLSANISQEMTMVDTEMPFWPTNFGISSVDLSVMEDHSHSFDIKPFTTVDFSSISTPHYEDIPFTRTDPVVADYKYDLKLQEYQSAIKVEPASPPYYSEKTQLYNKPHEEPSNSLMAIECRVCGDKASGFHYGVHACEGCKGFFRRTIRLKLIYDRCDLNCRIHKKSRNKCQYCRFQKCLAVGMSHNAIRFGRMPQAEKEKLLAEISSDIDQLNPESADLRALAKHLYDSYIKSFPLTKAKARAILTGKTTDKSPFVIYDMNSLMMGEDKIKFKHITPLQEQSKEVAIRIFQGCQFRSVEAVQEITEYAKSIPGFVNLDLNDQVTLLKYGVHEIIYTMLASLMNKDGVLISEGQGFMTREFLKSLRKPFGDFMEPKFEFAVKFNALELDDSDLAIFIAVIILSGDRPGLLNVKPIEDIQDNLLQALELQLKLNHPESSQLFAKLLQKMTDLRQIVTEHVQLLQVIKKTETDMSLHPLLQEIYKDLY
Description: Displacement of [3H]2-methyl-2-(4-{3-propyl-(5-pyridin-2yl-thiophene-2-sulfonyl)-amino]-pro-pyl}-phenoxy)-propionic acid from human PPARgamma

The test system of a further assay is Mus musculus. The assay can be described thus: Reduction of plasma glucose level in db/db mouse at 30 mg/kg, po relative to rosiglitazone. The class given is functional. On the set-up: scale not given: the % may be the effect or the level left.
Assay [4] has as its target T1, Peroxisome proliferator-activated receptor alpha. The assay can be described thus: Activity at human PPARalpha in CV1 cells. The class given is cell-based, CV-1.
For assay [5], the target named is T3, Peroxisome proliferator-activated receptor gamma. The source holds these as a separate data set.
Description: Activity at human PPARgamma in CV1 cells

On to `Cc1sc(N2CCOCC2)nc1CCOc1ccc(CCC(=O)O)c(CNC(=O)OC(C)C)c1`, for which the IC50 in assay [1] worked out at 1490 nM; in assay [3], 22 nM. Moreover, the Efficacy in assay [2] turned out to be 37%. The same molecule gave an ED50 with Rattus norvegicus of 0.12 mg/kg. The molecule also had an Activity in the assay on Mus musculus of 58%. Also, the EC50 in assay [4] was 986 nM; in assay [5] it was 28 nM.

On to `Cc1oc(-c2ccccc2)nc1CCOc1ccc(CCC(=O)O)c(CNC(=O)Oc2cnccn2)c1`, for which the IC50 in assay [1] turned out to be 53 nM; in assay [3], 17 nM. The molecule also yielded an Efficacy in assay [2] of 60%. The values for the EC50 in assay [4] and in assay [5] were 35 nM and 7 nM, respectively.

In the case of `Cc1oc(-c2ccccc2)nc1CCOc1ccc(CCC(=O)O)c(CNS(=O)(=O)Cc2ccccc2)c1`, the IC50 was determined as 3390 nM in assay [1] and 72 nM in assay [3]. For the same molecule, in assay [2], the Efficacy turned out to be 33%. The half-maximal effective concentration (EC50) in assay [4] was determined as 2940 nM; in assay [5] it was 527 nM.

For the molecule `Cc1oc(-c2ccc(Oc3ccccc3)cc2)nc1CCOc1ccc(CCC(=O)O)c(CNC(=O)OC(C)C)c1`, the half-maximal inhibitory concentration (IC50) in assay [1] was found to be 516 nM; in assay [3], 50 nM. The molecule further displayed an Efficacy in assay [2] of 46%. This molecule also displayed a 50% effective dose (ED50) in the assay on Rattus norvegicus of 0.05 mg/kg. Besides, the half-maximal effective concentration (EC50) was 78 nM in assay [4] and 2 nM in assay [5].

For the molecule `Cc1oc(-c2ccc(-c3ccccc3)cc2)nc1CCOc1ccc(CCC(=O)O)c(CNC(=O)OC(C)C)c1`, the IC50 was determined as 3490 nM in assay [1] and 47 nM in assay [3]. This molecule returned a 50% effective dose (ED50) in the assay on Rattus norvegicus of 0.02 mg/kg. This molecule also had an Activity in the assay on Mus musculus of 56%. Also, the results for the EC50 in assay [4] and in assay [5] were 845 nM and 19 nM, respectively.

In the case of `Cc1oc(-c2ccc(-c3ccccc3)cc2)nc1CCOc1ccc(CCC(=O)O)c(CNC(=O)Oc2cnccn2)c1`, the IC50 was 449 nM in assay [1] and 26 nM in assay [3]. Further, the Efficacy in assay [2] amounted to 68%. This molecule came in with an ED50 in the assay on Rattus norvegicus of 0.03 mg/kg. Besides, the Activity in the assay on Mus musculus was 87%. The values for the concentration for a half-maximal effect (EC50) in assay [4] and in assay [5] were 198 nM and 2 nM, respectively.

In the case of `Cc1oc(-c2ccccc2)nc1CCOc1ccc(CCC(=O)O)c(CNC(=O)OC(C)C)c1`, the IC50 in assay [1] is 146 nM; in assay [3], 26 nM. The Efficacy in assay [2] was determined as 51%. In the assay with Mus musculus, this molecule returned an Activity of 58%. The EC50 was found to be 70 nM in assay [4] and 8 nM in assay [5].

Take `Cc1oc(-c2ccccc2)nc1CCOc1ccc(CCC(=O)O)c(CNC(=O)CCc2ccccc2)c1`: the IC50 came to 4960 nM in assay [1] and 161 nM in assay [3]. The Efficacy in assay [2] was 32%. The EC50 worked out at 2800 nM in assay [4] and 1020 nM in assay [5].

As for `CC(C)(Oc1ccc(C(=O)c2ccc(Cl)cc2)cc1)C(=O)O` [FENOFIBRIC ACID], in assay [1], the IC50 was greater than 10000 nM. In assay [2], this molecule showed an Efficacy of 35%. Moreover, in assay [4], the midpoint of the response, the EC50, lay at 2650 nM.

As to `Cc1oc(-c2ccccc2)nc1CCOc1ccc(CCC(=O)O)c(CNC(=O)NCc2ccccc2)c1`, the figures for the IC50 in assay [1] and in assay [3] were greater than 10000 nM and 706 nM, respectively. This molecule also returned an Efficacy in assay [2] of 5%. The same molecule gave a half-maximal effective concentration (EC50) in assay [5] of 2680 nM.

Turning to `Cc1oc(-c2ccc(-c3ncccn3)cc2)nc1CCOc1ccc(CCC(=O)O)c(CNC(=O)OC(C)C)c1`, the IC50 in assay [1] was determined as 9940 nM; in assay [3] it was 50 nM. Moreover, the Efficacy in assay [2] turned out to be 37%. For the same molecule, in the assay on Rattus norvegicus, the median effective dose (ED50) stood at 0.04 mg/kg. The Activity with Mus musculus stood at 52%. For the same molecule, the EC50 in assay [4] was determined as 900 nM; in assay [5], 4 nM.

Turning to `Cc1oc(-c2ccccc2)nc1CCOc1ccc(CCC(=O)O)c(CNC(=O)OCc2ccccc2)c1`, the results for the 50% inhibitory concentration (IC50) in assay [1] and in assay [3] were 441 nM and 91 nM, respectively. Moreover, the Efficacy in assay [2] came to 54%. Also, the EC50 in assay [4] amounted to 515 nM; in assay [5], 115 nM.
